Patent publication US20220409587A1, “METHODS OF TREATING HIV-1 INFECTION” (BIOTRON LIMITED, priority 2019, published 2022)
“Also recorded” adds a separate entry of the source.

What was measured:
IL-17F = test: Phase 2 study: plasma Th17 related cytokines (MSD U-Plex), IL-17F; type: in vivo, human; conditions: BIT225 cohort vs placebo (data not shown)
Method: (§1) A Phase 2, multi-centre, randomized, placebo-controlled, double-blind study of BIT225 in combination with ART (Atripla—efavirenz/emtricitabine/tenofovir DF) was undertaken in patients with HIV-1 infection that were treatment-naive. Patients were randomized into two groups on a 2:1 basis, with one group receiving BIT225 (100 mg QD; 6 patients: placebo; 3 patients), and one group receiving BIT225 (200 mg QD, 18 patients: placebo; 9 patients), with a total of 36 patients enrolled in the trial. The 100 mg BIT225 group was primarily included for detailed PK analyses due to limitations on the quantity of blood that could be drawn at time points coinciding with analyses of viral load decay, which were limited to the 200 mg cohort. All subjects received the standard dose of ART in addition to 12 weeks BIT225 or placebo study treatment. […]
(§2) Th17 cells regulate other immune cells, specifically neutrophils and macrophages, by secreting a variety of cytokines in response to pathogens. Plasma samples were analysed to determine the level of the Th17 related cytokines (IL-21, IFN-γ, IL-1p, IL-6, IL-10, IL-17A, IL-17E/IL-25, IL-17F, IL-22, and TNF-α) during the 12 week treatment period using electro-chemiluminescence MSD U-Plex Biomarker Group Th17 (Human Combo 2) Human Multiplex Assay (MesoScaleDiscovery, MD, USA).

TNF-α = test: Phase 2 study: plasma Th17 related cytokines (MSD U-Plex), TNF-α; type: in vivo, human; conditions: BIT225 cohort vs placebo (data not shown)
Method: as §1, §2

IL-1 B = test: Phase 2 study: plasma Th17 related cytokines (MSD U-Plex), IL-1 B; type: in vivo, human; conditions: BIT225 cohort vs placebo (data not shown)
Method: as §1, §2

[1] = Phase 2 study: safety and tolerability; type: in vivo, human
Method: (§3) A Phase 2, multi-centre, randomized, placebo-controlled, double-blind study of BIT225 in combination with ART (Atripla—efavirenz/emtricitabine/tenofovir DF) was undertaken in patients with HIV-1 infection that were treatment-naive. Patients were randomized into two groups on a 2:1 basis, with one group receiving BIT225 (100 mg QD; 6 patients: placebo; 3 patients), and one group receiving BIT225 (200 mg QD, 18 patients: placebo; 9 patients), with a total of 36 patients enrolled in the trial. The 100 mg BIT225 group was primarily included for detailed PK analyses due to limitations on the quantity of blood that could be drawn at time points coinciding with analyses of viral load decay, which were limited to the 200 mg cohort. All subjects received the standard dose of ART in addition to 12 weeks BIT225 or placebo study treatment. At the conclusion of the trial, patients remained on ART as per standard treatment protocols. HIV-1-infected subjects, males and females, aged 18 to 65 years inclusive, who were naive to ART were recruited. Individuals had HIV-1 RNA>5,000 copies/mL and CD4^+ T cell count>100 cells/mm^3.
There were two treatment cohorts. The first cohort received 100 mg capsule of BIT225 or placebo QD with ART for 12 weeks. Cohort 2 were given two 100 mg capsules BIT225 (200 mg BIT225) or placebo QD with ART. ART was 1 fixed dose combination tablet of Atripla.
The safety of the experimental treatments was assessed by monitoring adverse events, vital signs, ECG parameters, clinical laboratory tests (haematology, clinical chemistry, coagulation and urinalysis) and physical examinations.

[2] = Phase 2 study: pharmacokinetics (plasma, LC/MS/MS); type: in vivo, human
Method: as §3
There were two treatment cohorts. The first cohort received 100 mg capsule of BIT225 or placebo QD with ART for 12 weeks. Cohort 2 were given two 100 mg capsules BIT225 (200 mg BIT225) or placebo QD with ART. ART was 1 fixed dose combination tablet of Atripla. […]

[3] = test system: CD28 on CD4^+ T cells infected with HIV-1 NL4-3; test: Plasma membrane CD28 expression on HIV-1 NL4-3 infected CD4+ T cells, flow cytometry; type: cell-based, human; conditions: 3 μM BIT225, WT HIV-1 NL4-3 infected cells, up to 72 h; dependent on Vpu expression
Method: (§4) Method of virus stock generation is as described by Bobardt et al., PNAS, 2008; 105(14):5525-5530. Briefly, 293T cells were transfected with proviral plasmid (9 μg) and vesicular stomatitis virus G (VSV-G) envelope plasmid (1 μg). At day 2, VSV-G pseudotyped viruses (5 μg of p24) were harvested and used to acutely infect Jurkat cells (2×10^6 cells). Two days after infection, viruses were harvested, and p24 content was measured by ELISA (PerkinElmer). Viral infections were conducted in triplicate with 10 or 100 ng of p24 derived from transfected 293T cells. The following proviral constructs were used: wild-type HIV-1 pNL4.3 […] tropic[WT], pNL4.3 ANef, pNL4.3 AVpu, pNL4.3 ANefAVpu, and HIV-1 pBaL-1 CCR5(R5) tropic[WT].
(§5) CD4^+ T cell isolation as previously described by Geijtenbeek et al., Cell, 2000, 100:587-597. Human PBMC were purified from fresh blood by banding on Ficoll-Hypaque (30 min, 800 g, 25° C.; Amersham Biosciences). Primary human CD4^+ T cells were purified from PBMC by positive selection with anti-CD4 Dynabeads and subsequent release using Detachabead (Dynal Biotech). […]
(§6) Cells were treated with 3 μM BIT225 or DMSO control, and expression of CD28, CCR7, CD80 and CD86 measured by flow cytometry at 24, 48 and 72 hour time points. […]

[4] = test system: CCR7 on CD4^+ T cells infected with HIV-1 NL4-3; test: Plasma membrane CCR7 expression on HIV-1 NL4-3 infected CD4+ T cells, flow cytometry; type: cell-based, human
Method: as §4, §5, §6

[5] = test system: CD80 on MDM infected with HIV-1 NL4-3; test: Plasma membrane CD80 expression on HIV-1 NL4-3 infected MDM, flow cytometry; type: cell-based, human
Method: as §4
(§7) Blood-derived CD4^+ T lymphocytes and MDM were isolated as described in Saphire et al., J Virol 2001, 75:9187-9200. CD4^+ T cells and monocytes were extracted from the blood of three donors that were CCR5-Delta32 negative. […]
as §6

[6] = test system: CD86 on MDM infected with HIV-1 NL4-3; test: Plasma membrane CD86 expression on HIV-1 NL4-3 infected MDM, flow cytometry; type: cell-based, human
Method: as §4, §7, §6

[7] = 3 μM BIT225, ΔNefΔVpu HIV-1 NL4-3 double mutant

Cn1cc(-c2cccc3cc(C(=O)NC(=N)N)ccc23)cn1 [BIT225, N-carbamimidoyl-5-(1-methylpyrazol-4-yl)naphthalene-2-carboxamide]
IL-17F production versus placebo (IL-17F): no difference between cohorts
TNF-α versus placebo (TNF-α): no statistical differences
IL-1 B production versus placebo (IL-1 B): no statistical differences
Tolerability / safety ([1]; 100 and 200 mg QD cohorts with ART, 12 weeks): safe and well tolerated
QTcB in one discontinued subject (mild QTcB prolongation, Day 17), considered not related to BIT225 or Atripla ([1]; BIT225 100 mg cohort): > 480 ms
Subjects who discontinued the study early due to AEs ([1]; BIT225 100 mg cohort): Two
Serious AEs or deaths ([1]; all cohorts): no serious AEs (SAEs) or deaths
Effect of BIT225 on the PK characteristics of Atripla (ART) ([2]; co-administration (results not shown)): did not significantly affect; also recorded: no significant impact
Plasma exposures ([2]; intensive PK sampling, 100 mg cohort): within the expected timeframes and concentration ranges
CD28 expression on CD4+ T cells [3]: partial restoration
CCR7 expression on CD4+ T cells ([4]; 3 μM BIT225, WT HIV-1 NL4-3-infected cells, dependent on Vpu expression): partial restoration
CCR7 downregulation by Nef expression alone ([4]; 3 μM BIT225, ΔVpu virus): not affected
Plasma membrane CD80 expression on MDM ([5]; 3 μM BIT225, WT or ΔNef virus infected cells (express Vpu)): partial restoration
Plasma membrane CD80 expression on MDM [5, 7]: no observable effect
Plasma membrane CD86 expression on MDM ([6]; 3 μM BIT225, WT or ΔNef virus infected cells): partial restoration
Plasma membrane CD86 expression on MDM [6, 7]: no observable effect
